The source of these data is US20130261241A1, “METHODS FOR CONTROLLING WATER AMOUNT IN A POLYMER COMPOSITION OR SUBSTRATE” (Bendiner Technologies, LLC, priority 2009, published 2013).

Regarding `C/C=C/C=C/C(=O)[O-].[K+]` [Potassium sorbate, potassium sorbate], under “as potassium sorbate concentration is increased (0.0001% to 10%), no added sodium chloride”, the “change in zeta potential” value is listed as “less negative”. The “effect on the zeta potential” value (concentrations below approximately 0.01%) was “no effect”.
